According to PubChem BioAssay (NCI):
“And” between values parts separate entries of the source, which are not always exact repeats. Equal values may be shown once.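 Growth conditions: 96-well plates. Treatment: test compound, 48 hours, 5 concentrations. Analysis: linear interpolation between bracketing concentrations; unreached endpoints set to highest concentration. GI50 marks 50% less growth. The concentration for full growth arrest is given as TGI.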

Assays:
Assay in all cases: growth of human tumour cells (NCI), 48 h
SF-268 CNS = system: SF-268 CNS
NCI-H522 lung = system: NCI-H522 lung
BT-549 breast = system: BT-549 breast
CCRF-CEM leukemia = system: CCRF-CEM leukemia
PC-3 prostate = system: PC-3 prostate
NCI-H460 lung = system: NCI-H460 lung
HOP-62 NSCLC = system: HOP-62 NSCLC
EKVX NSCLC = system: EKVX NSCLC
OVCAR-5 ovarian = system: OVCAR-5 ovarian
HL-60(TB) leukemia = system: HL-60(TB) leukemia
UO-31 renal = system: UO-31 renal
A549 NSCLC = system: A549 NSCLC
OVCAR-4 ovarian = system: OVCAR-4 ovarian
786-0 renal = system: 786-0 renal
SN12C renal = system: SN12C renal
NCI-H23 lung = system: NCI-H23 lung
M14 melanoma = system: M14 melanoma
MCF7 breast = system: MCF7 breast
HCT-15 colon = system: HCT-15 colon
A498 renal = system: A498 renal
MDA-MB-231 breast = system: MDA-MB-231 breast
SNB-19 CNS = system: SNB-19 CNS
NCI/ADR-RES ovarian = system: NCI/ADR-RES ovarian
DU-145 prostate = system: DU-145 prostate
RXF 393 renal = system: RXF 393 renal
KM12 colon = system: KM12 colon
OVCAR-8 ovarian = system: OVCAR-8 ovarian
NCI-H226 lung = system: NCI-H226 lung
HCT-116 colon = system: HCT-116 colon
MOLT-4 leukemia = system: MOLT-4 leukemia
SK-MEL-28 melanoma = system: SK-MEL-28 melanoma
LOX IMVI melanoma = system: LOX IMVI melanoma
SK-OV-3 ovarian = system: SK-OV-3 ovarian
TK-10 renal = system: TK-10 renal
COLO 205 colon = system: COLO 205 colon
SF-295 CNS = system: SF-295 CNS
SK-MEL-2 melanoma = system: SK-MEL-2 melanoma
OVCAR-3 ovarian = system: OVCAR-3 ovarian
UACC-62 melanoma = system: UACC-62 melanoma
SF-539 CNS = system: SF-539 CNS
MDA-MB-435 = system: MDA-MB-435
HS 578T breast = system: HS 578T breast
CAKI-1 renal = system: CAKI-1 renal
RPMI-8226 leukemia = system: RPMI-8226 leukemia
HT29 colon = system: HT29 colon
SR leukemia = system: SR leukemia
IGROV1 ovarian = system: IGROV1 ovarian
MALME-3M melanoma = system: MALME-3M melanoma
SK-MEL-5 melanoma = system: SK-MEL-5 melanoma
T-47D breast = system: T-47D breast
ACHN renal = system: ACHN renal
SW-620 colon = system: SW-620 colon
UACC-257 melanoma = system: UACC-257 melanoma
MDA-N = system: MDA-N
K-562 leukemia = system: K-562 leukemia
U251 CNS = system: U251 CNS
HCC-2998 colon = system: HCC-2998 colon
SNB-75 CNS = system: SNB-75 CNS
HOP-92 NSCLC = system: HOP-92 NSCLC

## COc1cc2c3c(c1)c1cc(OC)c(OC)cc1c[n+]3CC2
SF-268 CNS
  GI50: 0.351 µM
  TGI: 3.3 µM and 3.8 µM
NCI-H522 lung
  GI50: 1.93 µM
  TGI: 14.8 µM and 37.1 µM
BT-549 breast
  GI50: 7.23 µM
  TGI: 22.7 µM and 55.2 µM
CCRF-CEM leukemia
  GI50: 69.8 µM
  TGI: > 100 µM
PC-3 prostate
  GI50: 29.9 µM
  TGI: 50 µM and > 100 µM
NCI-H460 lung
  TGI: 47.8 µM
HOP-62 NSCLC
  GI50: 3.24 µM
  TGI: 50 µM and > 100 µM
EKVX NSCLC
  GI50: > 100 µM
  TGI: 50 µM and > 100 µM
OVCAR-5 ovarian
  GI50: > 100 µM
  TGI: > 100 µM
HL-60(TB) leukemia
  GI50: > 100 µM
  TGI: > 100 µM
UO-31 renal
  TGI: > 100 µM
A549 NSCLC
  GI50: 76.7 µM
  TGI: > 100 µM
OVCAR-4 ovarian
  GI50: 18.2 µM
  TGI: 50 µM and > 100 µM
786-0 renal
  GI50: 56.2 µM
  TGI: 50 µM and > 100 µM
SN12C renal
  GI50: 5.66 µM
  TGI: 15.6 µM and > 100 µM
NCI-H23 lung
  TGI: 45.6 µM and > 100 µM
M14 melanoma
  GI50: 63.8 µM
  TGI: > 100 µM
MCF7 breast
  GI50: 21.3 µM
  TGI: 50 µM and > 100 µM
HCT-15 colon
  GI50: > 100 µM
  TGI: > 100 µM
A498 renal
  GI50: > 100 µM
  TGI: > 100 µM
MDA-MB-231 breast
  GI50: > 100 µM
  TGI: > 100 µM
SNB-19 CNS
  GI50: 1.94 µM
  TGI: 50 µM and > 100 µM
NCI/ADR-RES ovarian
  GI50: > 100 µM
  TGI: > 100 µM
DU-145 prostate
  GI50: 40.3 µM
  TGI: 50 µM and > 100 µM
RXF 393 renal
  TGI: 50 µM and > 100 µM
KM12 colon
  GI50: 5.69 µM
  TGI: 19.3 µM and 69.9 µM
OVCAR-8 ovarian
  GI50: 1.86 µM
  TGI: 50 µM and 43.6 µM
NCI-H226 lung
  GI50: 4.13 µM
  TGI: 50 µM and 77.3 µM
HCT-116 colon
  GI50: 40.5 µM
  TGI: 50 µM and > 100 µM
MOLT-4 leukemia
  GI50: 5.16 µM
  TGI: 50 µM and > 100 µM
SK-MEL-28 melanoma
  GI50: 32.8 µM
  TGI: 50 µM and > 100 µM
LOX IMVI melanoma
  GI50: 35.5 µM
  TGI: 50 µM and > 100 µM
SK-OV-3 ovarian
  GI50: 89.5 µM
  TGI: > 100 µM
TK-10 renal
  GI50: > 100 µM
  TGI: > 100 µM
COLO 205 colon
  GI50: 14.8 µM
  TGI: 50 µM and > 100 µM
SF-295 CNS
  TGI: 50 µM and > 100 µM
SK-MEL-2 melanoma
  GI50: 16.7 µM
  TGI: 50 µM and 71.3 µM
OVCAR-3 ovarian
  GI50: 17.7 µM
  TGI: 50 µM and > 100 µM
UACC-62 melanoma
  GI50: 28.7 µM
  TGI: 50 µM and > 100 µM
SF-539 CNS
  TGI: 50 µM
MDA-MB-435
  GI50: 44.2 µM
  TGI: 50 µM and > 100 µM
HS 578T breast
  TGI: 20.6 µM
CAKI-1 renal
  GI50: > 100 µM
  TGI: 50 µM and > 100 µM
RPMI-8226 leukemia
  TGI: 50 µM
HT29 colon
  GI50: 37.2 µM
  TGI: 50 µM and > 100 µM
SR leukemia
  TGI: 50 µM
IGROV1 ovarian
  TGI: 50 µM and > 100 µM
MALME-3M melanoma
  GI50: 2.71 µM
  TGI: 7.93 µM and 13 µM
SK-MEL-5 melanoma
  GI50: 11.8 µM
  TGI: 50 µM and 36.6 µM
T-47D breast
  GI50: 6.74 µM
  TGI: 34.2 µM and 72.4 µM
ACHN renal
  GI50: > 100 µM
  TGI: > 100 µM
SW-620 colon
  GI50: 26.6 µM
  TGI: > 100 µM
UACC-257 melanoma
  GI50: 15.9 µM
  TGI: 50 µM and 64.7 µM
MDA-N
  GI50: > 100 µM
  TGI: 50 µM and > 100 µM
K-562 leukemia
  GI50: 40.5 µM
  TGI: 50 µM and > 100 µM
U251 CNS
  GI50: 1.28 µM
  TGI: 50 µM and 25.9 µM

## CC(C)=CC(=O)O[C@H]1C(=O)O[C@@H]2C[C@H]3[C@H](C)C(=O)C(O[C@@H]4O[C@H](CO)[C@@H](O)[C@H](O)[C@H]4O)=C[C@]3(C)[C@H]3[C@@H](O)[C@H](O)[C@]4(C(=O)O)OC[C@]32[C@@H]14
SF-268 CNS
  GI50: > 100 µM
  TGI: > 100 µM
NCI-H522 lung
  GI50: 29 µM
  TGI: 52.6 µM
BT-549 breast
  GI50: > 100 µM
  TGI: > 100 µM
CCRF-CEM leukemia
  GI50: 36.3 µM
  TGI: > 100 µM
PC-3 prostate
  TGI: > 100 µM
HCC-2998 colon
  GI50: 24.7 µM
  TGI: 57.5 µM
NCI-H460 lung
  GI50: 32 µM
  TGI: > 100 µM
HOP-62 NSCLC
  GI50: 33.2 µM
  TGI: > 100 µM
EKVX NSCLC
  GI50: > 100 µM
  TGI: > 100 µM
OVCAR-5 ovarian
  TGI: > 100 µM
HL-60(TB) leukemia
  GI50: 35.8 µM
  TGI: > 100 µM
UO-31 renal
  GI50: 31.3 µM
  TGI: > 100 µM
A549 NSCLC
  GI50: 55 µM
  TGI: > 100 µM
OVCAR-4 ovarian
  GI50: 25.2 µM
  TGI: > 100 µM
786-0 renal
  TGI: > 100 µM
SN12C renal
  GI50: > 100 µM
  TGI: > 100 µM
NCI-H23 lung
  TGI: > 100 µM
M14 melanoma
  GI50: 32.1 µM
  TGI: > 100 µM
MCF7 breast
  GI50: 22.2 µM
  TGI: 66.1 µM
HCT-15 colon
  GI50: > 100 µM
  TGI: > 100 µM
A498 renal
  TGI: > 100 µM
MDA-MB-231 breast
  GI50: > 100 µM
  TGI: > 100 µM
SNB-19 CNS
  GI50: 31.3 µM
  TGI: > 100 µM
NCI/ADR-RES ovarian
  GI50: > 100 µM
  TGI: > 100 µM
DU-145 prostate
  GI50: > 100 µM
  TGI: > 100 µM
RXF 393 renal
  GI50: 25.4 µM
  TGI: 73.1 µM
KM12 colon
  GI50: 49.1 µM
  TGI: > 100 µM
OVCAR-8 ovarian
  GI50: > 100 µM
  TGI: > 100 µM
SNB-75 CNS
  TGI: > 100 µM
NCI-H226 lung
  GI50: 28.4 µM
  TGI: 85 µM
HCT-116 colon
  GI50: 29.8 µM
  TGI: > 100 µM
MOLT-4 leukemia
  GI50: 22.4 µM
  TGI: > 100 µM
SK-MEL-28 melanoma
  GI50: 37.3 µM
  TGI: > 100 µM
LOX IMVI melanoma
  GI50: 40.3 µM
  TGI: > 100 µM
SK-OV-3 ovarian
  GI50: > 100 µM
  TGI: > 100 µM
TK-10 renal
  TGI: > 100 µM
COLO 205 colon
  TGI: > 100 µM
OVCAR-3 ovarian
  GI50: 20.3 µM
  TGI: 52.1 µM
UACC-62 melanoma
  TGI: > 100 µM
SF-539 CNS
  GI50: 26.6 µM
  TGI: 67.1 µM
MDA-MB-435
  TGI: > 100 µM
HOP-92 NSCLC
  GI50: 31.4 µM
  TGI: > 100 µM
HS 578T breast
  GI50: > 100 µM
  TGI: > 100 µM
CAKI-1 renal
  TGI: > 100 µM
HT29 colon
  GI50: 35.6 µM
  TGI: > 100 µM
SR leukemia
  GI50: 31.2 µM
  TGI: > 100 µM
IGROV1 ovarian
  TGI: > 100 µM
MALME-3M melanoma
  GI50: 24.2 µM
  TGI: 61.1 µM
SK-MEL-5 melanoma
  GI50: 42.9 µM
  TGI: > 100 µM
T-47D breast
  TGI: > 100 µM
ACHN renal
  GI50: > 100 µM
  TGI: > 100 µM
SW-620 colon
  TGI: > 100 µM
UACC-257 melanoma
  TGI: > 100 µM
MDA-N
  TGI: > 100 µM
K-562 leukemia
  GI50: 25.8 µM
  TGI: > 100 µM
U251 CNS
  GI50: 40 µM
  TGI: > 100 µM
